Series [1] has as its system Splenocyte. Nature of the series: Inhibition of mouse B-cell splenocyte activation by cell proliferation assay. It is filed as functional, cell-based.
Series [2] has as its target T1, Tyrosine-protein kinase BTK (Homo sapiens, UniProt Q06187).
Description: Inhibition of human BTK by enzymatic assay
The subject of series [3] is Blood. The series can be described thus: Inhibition of IgM-stimulated CD69 expression in human whole blood. It is filed as functional, tissue-based.
The target of series [4] is T1, Tyrosine-protein kinase BTK. The series can be described thus: Inhibition of BTK in human Ramos cells by FLIPR assay. It is filed as cell-based.
Series [5] in a line: Oral bioavailability in dosed rat. It is filed as ADME, organism-based. Conditions: in vivo.
Series [6] has as its system Macrophage. The series can be described thus: cells.
Description: (§1) Inhibition of immobilized immune complex-stimulated TNFalpha production in macrophages
The nature of series [7]: Inhibition of anti-IgM-induced human B cell proliferation. It is filed as functional, cell-based.
For series [8], the system named is Blood. Nature of the series: Inhibition of CD63 expression in human whole blood. Format: functional, tissue-based.
The nature of series [9]: Clearance in po dosed rat. It is filed as ADME, organism-based. The following applies: in vivo.
Series [10] concerns Mus musculus. The series can be described thus: Antiarthritic effect in mouse CIA model assessed as inhibition of clinical arthritis scores dosed prophylactically through subcutaneous route. It is filed as functional.
For series [11], the system named is Rattus norvegicus. Nature of the series: Inhibition of hypersensitive immune responses in rat passive cutaneous anaphylaxis model at 30 mg/kg. Format: functional.
For series [12], the system named is Mast cell.
Description: Inhibition of IgE-Fce cross-linking induced histamine release in mast cells
Series [13] relates to Macrophage.
Description: as §1
For series [14], the system named is Mus musculus. Nature of the series: Inhibition of anti-IgD antibody stimulated CD69 expression in mouse CIA model dosed prophylactically at 3 to 100 mg/kg, po measured 24 hrs post dose. Format: functional. Conditions: dose mg/kg 3-100.

Molecules are shown by their SMILES.

T1 sequence (Q06187 whole entry): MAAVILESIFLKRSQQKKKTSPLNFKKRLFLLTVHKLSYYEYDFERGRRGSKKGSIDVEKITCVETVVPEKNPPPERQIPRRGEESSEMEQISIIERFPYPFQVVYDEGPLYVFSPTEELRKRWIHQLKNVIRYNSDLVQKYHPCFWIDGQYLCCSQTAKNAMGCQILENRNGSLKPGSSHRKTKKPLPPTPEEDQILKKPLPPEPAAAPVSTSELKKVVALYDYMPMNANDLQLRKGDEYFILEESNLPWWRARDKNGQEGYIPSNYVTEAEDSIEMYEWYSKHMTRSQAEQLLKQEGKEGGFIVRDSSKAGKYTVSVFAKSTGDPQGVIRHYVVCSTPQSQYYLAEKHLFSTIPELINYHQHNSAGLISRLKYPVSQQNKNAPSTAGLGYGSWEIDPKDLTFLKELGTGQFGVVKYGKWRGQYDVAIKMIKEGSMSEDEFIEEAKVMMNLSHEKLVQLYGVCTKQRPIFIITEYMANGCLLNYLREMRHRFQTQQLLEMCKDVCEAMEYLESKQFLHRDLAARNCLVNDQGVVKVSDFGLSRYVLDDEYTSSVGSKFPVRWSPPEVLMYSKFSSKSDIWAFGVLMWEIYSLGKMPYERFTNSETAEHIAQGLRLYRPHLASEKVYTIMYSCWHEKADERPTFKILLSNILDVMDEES

The term IC50 denotes the midpoint of a concentration-inhibition curve. Low values mean inhibition by little substance, high ones a need for much substance. Consider `Cc1c(NC(=O)c2ccc(N(C)C)cc2)cccc1-c1nc(Nc2ccc(C(=O)N3CCOCC3)cc2)c2nccn2n1`, for which the IC50 was determined as 0.142 µM in [1] and 0.144 µM in series [2].
On to `O=C(N[C@@H]1CCCN(c2ncnc3[nH]ccc23)C1)[C@H](Nc1ccccc1)C1CC1`, for which, in series [2], the IC50 is less than 0.1 µM.
`CN1CCN(c2ccc(Nc3cc(-c4cccc(N5CCOc6cc(C(C)(C)C)ccc6C5=O)c4CO)cn(C)c3=O)nc2)CC1`: the 50% inhibitory concentration (IC50) in series [3] (Homo sapiens, Blood) turned out to be 0.004 µM.
On to `Cc1c(-c2ccc(C(N)=O)c3[nH]c4cc(C(O)CO)ccc4c23)cccc1-n1cnc2ccc(F)cc2c1=O` (stereo not given), for which the IC50 in series [4] came out at 0.011 µM.
As usually defined, the bioavailability is the share of a dose that reaches the circulation, judged against a reference dose that is usually intravenous. Low readings indicate poor availability, high ones good availability. Usually EC50 stands for the concentration that produces a half-maximal response. What is called CL/F is the apparent clearance, not corrected for the fraction that reaches the circulation. As to `Cc1c(NC(=O)c2ccc(C(C)(C)C)cc2)cccc1-c1cn(C)c(=O)c(Nc2ccc(C(=O)N3CCOCC3)cc2)n1`, the bioavailability in [5] was less than 1%. For the same molecule, the results for the IC50 in series [6] and in [7] were 0.025 µM and 0.042 µM, respectively. This molecule also yielded an EC50 in [8] of 1.2 µM. Further, the apparent clearance (CL/F) in series [9] came out at 86 mL/min/kg. The “inhibition (INH)” value in series [10] is more than 97%.
In the case of `Nc1ncnc2c1c(-c1ccc(Oc3ccccc3)cc1)nn2C1CCCC1`, in series [2], half-maximal inhibition (IC50) was put at 0.0082 µM.
For the molecule `CC(C)(C)c1ccc(C(=O)Nc2cccc(-c3cn4ccnc4c(Nc4ccccc4)n3)c2)cc1`, 0.4 µM corresponded to half-maximal inhibition in series [2] (IC50). This IC50 is about 49-fold higher than that of the molecule before.
For the molecule `Cc1c(NC(=O)c2ccc(N(C)C)cc2)cccc1-c1nc(Nc2ccc(C(=O)N3CCOCC3)cc2)c2ncc(N)n2n1`, the results for the half-maximal inhibitory concentration (IC50) in [1] and in series [2] were 0.032 µM and 0.03 µM, respectively.
`O=C(CNc1ccccc1S(=O)(=O)N1CCCCC1)N[C@@H]1CCCN(c2ncnc3[nH]ccc23)C1` came in with an IC50 in series [2] of less than 0.1 µM.
For orientation: inhibition in vivo means the share of the control response that was lost under treatment. Read a high inhibition in vivo as strong suppression. On to `CN1CCC(=C2c3ccccc3C=Cc3ccccc32)CC1` [CYPROHEPTADINE], for which the inhibition in vivo at 30 mg/kg in series [11] turned out to be 69%.
Regarding `C=CC(=O)N1CCCC(c2c(Cl)c(-c3ccc(Oc4ccc(Cl)c(Cl)c4)c(OC)c3)c3c(N)ncnn23)C1` (stereo not given), the midpoint of inhibition in series [1], the IC50, lay at 0.13 µM.
In series [1], `Cc1ccccc1Nc1nc2cc(F)c(N(C)C(=O)/C=C/CN(C)C)cc2n2cncc12` displayed an IC50 of 0.00341 µM.
As to `CN1CCN(c2ccc(Nc3cc(-c4cccc(-n5ccc6cc(C7CC7)cc(F)c6c5=O)c4CO)cn(C)c3=O)nc2)CC1`, the concentration for half-maximal inhibition (IC50) in series [12] turned out to be 0.0292 µM; in [3] it was 0.017 µM; in series [13], 0.004 µM. The molecule further yielded an inhibition in vivo at 30 mg/kg in series [11] of 91%. Besides, in [14], the “inhibition (INH)” value came to 50%.
With `CC(C)(C)c1ccc(C(=O)N[C@@H]2CCCN(c3nc(Nc4ccc(C(=O)N5CCNCC5)cc4)c4nccn4n3)C2)cc1`, the 50% inhibitory concentration (IC50) in [1] was found to be 0.056 µM.

The values above are taken from ChEMBL document CHEMBL2057130, “Bruton's tyrosine kinase inhibitors: approaches to potent and selective inhibition, preclinical and clinical evaluation for inflammatory diseases and B cell malignancies” (J Med Chem, 2012).
